Measured values taken from patent publication US4395969A (priority 1981, dated 1983).

Legend:
[1] = Static bioassay, lethal concentration to coho salmon; format: in vivo, Oncorhynchus kisutch; conditions: coho salmon, water, 10 C
Protocol: (§1) Bioassays utilized water from an artesian well at Moscow, Idaho and from the headwaters of the Palouse River, also in Idaho. The chemical characteristics of the artesian water were analyzed as follows: Total hardness 67-120 mg/l; total dissolved solids, 160-175 mg/l; and pH 7.1. The chemistry of the Palouse River water was analyzed as follows: total hardness 17 mg/l; methyl orange alkalinity 26 mg/l; total dissolved solids, 32 mg/l and pH, 7.0.
(§2) Fish were acclimated to test temperatures, usually at 5, 7.5, 10, 15 and 20 degrees Celsius (C), at least 60 hours before exposure to toxicants. For fish and crayfish four water baths regulated the temperature of assay aquaria. Each water bath contained a battery of 20 identical 19-liter clear glass containers or 11.4-liter plastic aquaria lined with disposable polyethylene bags and covered with Plexiglass lids to reduce evaporation. For larger fish and large numbers of fish the bioassays were made in two temperature controlled rooms that contained a series of 700-liter circular fiberglass vats and a series of 76- and 91-liter plastic containers.
(§3) Standard bioassay techniques were used in sorting fish and conducting the tests. Fish were placed in aerated test aquaria overnight to permit fish to recover from stress due to handling and to deprive them of food. The average load varied but most bioassays were conducted with about 1 g of fish per liter of water.
(§4) Aliquots of organophosphates were dissolved in ethanol and dispensed to the aquaria to provide concentrations suitable for obtaining the LC0 and LC50 of desirable fish and the LC50 and LC100 of target fish. Control fish were conditioned in the same manner as the test fish, but no chemical was added to the control vessels during the assays. After the addition of a chemical, observations were made mainly at 3, 6, 12, 24, 48, 96, and 192 h. The weight and fork length of fish were obtained when fishes were sacrificed.
(§5) Delineation bioassays determined primarily the LC50 and LC100 of sucker and stickleback and the LC0 and LC50 of salmonids.
(§6) The statistical LC1, LC50, and LC99 were interpolated and/or extrapolated using probit graph paper to approximate the LC0, LC50, and LC100 when the latter set of values was not closely determined by single concentrations in a series.
(§7) Threespine stickleback, brook stickleback, bridgelip sucker, white sucker, chinook salmon, coho salmon, sockeye salmon, kokanee, Kamloops trout, cutthroat trout, and brook trout were treated with various concentrations of 2, 2, 2, 1-tetrachloroethyl diethyl phosphate and at various temperatures to determine approximate selectivity and safety indices. The approximate LC50 and LC100 of the target fishes (threespine and brook sticklebacks and bridgelip and white suckers) are tabulated in Table 5. The 96-hour selectivity and safety indices of selected species of salmonids versus the threespine stickleback are tabulated in Table 7.

coho salmon = test: as above; format: in vivo, Oncorhynchus kisutch; conditions: 10 C
Protocol: as §1, §2, §3, §4, §5, §6, §7

Arctic grayling = test: Exploratory bioassay, Arctic grayling; format: in vivo, Thymallus arcticus; conditions: 10 μg/l; 48 h
Protocol: (§8) Cursory bioassays were made with small numbers of other fishes and a crayfish (Pacifasticus klamathensis) to check on the universal selectivity of the toxicants. The fishes included Arctic grayling (Thymallus arcticus), longnose sucker (C. catastomus), largescale sucker, (C. macrocheilus), and spotted sucker (Minytrema melanops).
Three longnose suckers (about 125 mm) and three Arctic grayling (about 125 mm) were exposed to 10 μg/l of 2, 2, 2, 1-tetrachloroethyl diethyl phosphate. The suckers died between 14 and 22 hours at 13 C. The grayling were not affected in 48-hour biassays.

stickleback = test: Deactivation with activated carbon, survival of stickleback; format: in vivo; conditions: 2 mg/l; for Mean survival time, bioassay started 18 hours after chemical was added / Mean survival time, bioassay started when chemical was added: river water, 15 C
Protocol: A second lot of 5 fish was added to each aquarium 18 hours after the first lot of 10 fish had died or lost their equilibrium. As the life of the first lot of fish was short, the test water was only slightly conditioned by the dying fish and any error introduced by this procedure was relatively small.

chinook salmon = test: Deactivation with potassium permanganate, mortality of chinook salmon; format: in vivo, O. tschawytscha
spotted sucker = test: Exploratory bioassay, spotted sucker; format: in vivo, Minytrema melanops; conditions: less than 24 h; 15 C; 31 to 38 mm
Protocol: as §8
A series of five 24-hour biassays was made with the spotted sucker (2 fish per aquarium) at a concentration range of 1 mg/l to 5 mg/l of 2, 2-dichlorovinyl diethyl phosphate. The chemical killed all of the spotted suckers (31 to 38 mm) at 1 mg/l in less than 24 hours at 15 C.

carp = test: Bioassay, carp; format: in vivo, Cyprinus carpio; conditions: for selectivity to carp: in vivo
Protocol: In a later bioassay a concentration of 1 mg/l of 2, 2-dichlorovinyl diethyl phosphate killed a 20 g carp (68 mm) in 10 l of artesian well water (load, 2.0 g/l) at 10 C. in 30 hours.
A subsequent series of bioassays tested concentrations of 0.0, 0.6, 0.8, 1.0, 1.5 and 2.0 mg/l of 2, 2-dichlorovinyl diethyl phosphate with larger carp (fork length range, 115-150 mm; mean weight, 44 g) using 10 fish per concentration (load, 0.7 g/l) and artesian well water at 10 C. A concentration of 2.0 mg/l of the chemical killed 100 percent of the carp in 24 hours and a concentration of 1.5 mg/l killed 90 percent of them in […] and 100 percent in 72 hours. No fish died in the control or at a concentration of 0.6 mg/l in 192-hour bioassays. In contrast the LC0 of salmonids exposed to 2, 2-dichlorovinyl diethyl phosphate varies between 4 and 8 mg/l in 48-hour bioassays and 2 and 6 mg/l in 96-hour bioassays at 10 C. (Table 2).

in vivo = conditions: steelhead trout

Structure (SMILES): CCOP(=O)(OCC)OC(Cl)C(Cl)(Cl)Cl (centres unmarked) [2,2,2,1-tetrachloroethyl diethyl phosphate]
- LC50 at 96 h ([1]; 96 h): 0.023 µg/mL
- LC50 at 192 h ([1]; 192 h): 0.015 µg/mL
- LC0 (coho salmon; 48 h): 30 µg/L
- LC0 (coho salmon; 96 h): 14 µg/L
- LC0 (coho salmon; 192 h): 8 µg/L
- effect on grayling (Arctic grayling): not affected

Structure (SMILES): CCOP(=O)(OC=C(Cl)Cl)OCC [2,2-dichlorovinyl diethyl phosphate]
- effect of activated carbon on mortality (stickleback): delayed mortality
- survival time after 18-hour deactivation period (stickleback; 8 and 32 mg/l of carbon): about tripled
- Mean survival time, bioassay started 18 hours after chemical was added (stickleback; activated carbon 0 mg/l): 9.5 h
- Mean survival time, bioassay started when chemical was added (stickleback; activated carbon 0 mg/l): 7.5 h
- Mean survival time, bioassay started 18 hours after chemical was added (stickleback; activated carbon 4 mg/l): 8.0 h
- Mean survival time, bioassay started when chemical was added (stickleback; activated carbon 4 mg/l): 9.2 h
- Mean survival time, bioassay started 18 hours after chemical was added (stickleback; activated carbon 8 mg/l): 33.5 h
- Mean survival time, bioassay started when chemical was added (stickleback; activated carbon 8 mg/l): 10.8 h
- Mean survival time, bioassay started when chemical was added (stickleback; activated carbon 16 mg/l): 12.0 h
- Mean survival time, bioassay started when chemical was added (stickleback; activated carbon 32 mg/l): 22.0 h
- Mean survival time, bioassay started 18 hours after chemical was added (stickleback; activated carbon 32 mg/l, 1 fish did not die (observed 11 days)): 95.0 h
- deactivation by 1 equivalent weight of permanganate (chinook salmon; 15 C): about 25%
- effect of potassium permanganate on mortality (chinook salmon; excessive concentrations of 2 Cl): delayed mortality
- concentration that killed all of the spotted suckers (spotted sucker): 1 mg/L
- carp mortality (carp; 0.6 mg/l, 192 h, artesian well water, 10 C): No fish died
- time in which carp was killed (carp; 1 mg/l, 20 g carp, artesian well water, 10 C): 30 h
- carp killed (carp; 1.5 mg/l, 72 h, artesian well water, 10 C): 100%
- carp killed (carp; 1.5 mg/l, 96 h, artesian well water, 10 C): 90%
- carp killed (carp; 2.0 mg/l, 24 h, artesian well water, 10 C): 100%
- selectivity to carp (carp): specific for the carp and bullhead catfish
- selectivity to carp (carp; listed as 2, 2-dichlorovinyl diethyl phosphate): the carp died first
- LC50 at 96 h (in vivo): 7.1 µg/mL
- LC50 at 192 h (in vivo): 2.8 µg/mL
